Reference: paper PMC6906394, “Radiomodifying action, Pharmacokinetic and Biodistribution of Ethyl 3, 4, 5-trihydroxybenzoate-Implication in development of radiomitigator” (Scientific Reports, 2019)
“Also recorded” adds a separate entry of the source. Where two headings read alike, the source gives them in different places.

What was measured:
[1] = Biodistribution of GAE in liver, kidney, heart, spleen and brain after oral administration; assay type: in vivo, mice
Experimental: The Biodistribution in mice at 15 min, 30 min, 1 h, 2 h, 4 h, 8 h and 24 h after GAE administration are presented in (Fig. 2A,B). […] Moreover; no GAE peak was identified in untreated control and irradiated animals. In the GAE treated group the concentration of GAE is highest in the liver 3383.1 ± 137.79 ng/g at 1 h, 529.13 ± 102.8 ng/g in the kidney at 2 h and 283.1 ± 20.60 ng/g in the brain at 1 h after GAE administration. […] After 2 h of GAE administration its concentration decreased GAE was found in heart, spleen, and kidney up to 4 h, whereas in brain it found in low concentration up to 2 h.
(§1) Black C57BL/6 male mice weighing 28–30 g were maintained at the Institutional Animal Experimental Facility. Animals were fed according to standard chow diet having free access to food and water ad libitum. The environmental condition was maintained at room temperature (22 ± 2 °C), relative humidity (45–60%) and 12 h dark/light cycle controlled facility. In this study, mice were randomly assigned to four different groups (n = 21) i.e untreated control (UC), GAE-treated (GAE), Radiation + GAE (R + GAE), Radiation group (R). Mice fasted overnight with free access to water before being dosed. Isolated GAE from leaves was dissolved with distilled water and ethanol in (7:3 v/v) and administered orally at a dose of 200 mg/kg body weight to GAE-treated and R + GAE treated groups only. The experiment was carried out in accordance to regulation and guideline of the, Committee for the purpose of control and supervision of Experiments on animals (CPCSEA), and study was approved by Institutional Animal Experimental Committee (IAEC), Institute of Nuclear Medicine & Allied Science, Delhi, India.
Group I untreated control (UC), Group II GAE-treated (GAE), Group III Radiation + GAE (R + GAE) and Group IV Radiation (R) exposed. The GAE was administered orally 15 min post irradiation. The whole-body radiation (5 Gy) was carried out using Bhabahtron II, Telecobalt machine, Panacea medical technology, Bangalore. The mice exposed at a dose rate of 0.961 Gy/min at field 35 × 35 cm^2 and the distance maintained from the source was 80 cm.
Blood and tissues samples of mice were collected at 15 min, 30 min, 1 h, 2 h, 4 h, 8 h and 24 h after GAE administration (3mice per time). Blood was obtained from retro orbital plexus of mice and collected in heparinized eppendorf tubes, followed by centrifugation at 2500 g for 15 min. The resulting plasma layer was separated and stored in tubes at −20 °C for further analysis. Tissue samples (brain, heart, liver, kidney, and spleen) were weighed and put into the normal saline solution to remove the blood by blotting on filter paper and were minced and homogenized with physiological saline solution (1:2 w/v) thoroughly in an ice bath. The homogenates were stored at −80 °C until the analysis.
For the extraction from tissue, each aliquot (300 µL) of homogenate (liver, kidney, brain, heart & spleen) was spiked with 20 µL of the IS working solution (100 ng/mL) during analysis; homogenate was dispensed in a standing vial containing 400 µL ACN to precipitate proteins. The biological samples were swirled for 3 min and were centrifuged at 12000 rpm for 10 min at 4 °C. The obtained supernatant was tubed and dried under a stream of nitrogen at 40 °C, the sample was reconstituted with mobile phase, then and 20 µL was injected into the HPLC system.
GAE was separated on the high-performance liquid chromatography (HPLC), SPD-10A consisting of binary HPLC pump, ultraviolet detector, and a Rheodyne manual injector equipped with a 20 µl loop (Shimadzu, Japan). Separation was achieved on Kinetex Biphenyl RP 100 Å column (2.6 µm, 150 × 4.6 mm) (Phenomenex, Torrance) installed with phenyl cartridges (Phenomenex, Torrance). The system was controlled using class VP software (Shimadzu, Japan). […]

[2] = test system: NF-kB; assay: Immunofluorescent staining of NF-kB expression in liver and kidney sections; assay type: in vivo, mice; conditions: R + GAE group, compared to irradiated group
Experimental: as §1
Group I untreated control (UC), Group II GAE-treated (GAE), Group III Radiation + GAE (R + GAE) and Group IV Radiation (R) exposed. The GAE was administered orally 15 min post irradiation. […]

[3] = R + GAE treated group (5 Gy), 200 mg/kg b.wt oral
[4] = after GAE administration, 200 mg/kg b.wt oral

CCOC(=O)c1cc(O)c(O)c(O)c1 [GAE, Ethyl 3,4,5-trihydroxybenzoate]
crossing of the blood-brain barrier ([1]; GAE detected in brain in both GAE and R + GAE treated groups): crosses the blood-brain barrier; also recorded: could cross the blood-brain barrier | concentration of GAE (liver, tissue implied by context) [1, 3]: 1928.5 ± 39.63 ng/g | kidney concentration of GAE [1, 3]: 307.77 ± 7.80 ng/g | time up to which GAE was found in brain (low concentration) [1, 4]: up to 2 h | time up to which GAE was found in heart, spleen and kidney [1, 4]: up to 4 h | tissues with the highest concentration ([1]; biodistribution, 200 mg/kg b.wt oral): liver and kidney | peak GAE concentration in liver relative to other tissues ([1]; both GAE treated and R + GAE treated groups): two fold higher | concentration at 1 h ([1]; male, C57BL/6, mouse, brain, po, 200 mg/kg, GAE treated group, 200 mg/kg b.wt oral, read-out: concentration of GAE in the brain): 283 ± 20.6 ng/g | concentration at 1 h ([1]; male, C57BL/6, mouse, heart, po, 200 mg/kg, GAE treated animals, 200 mg/kg b.wt oral, read-out: GAE concentration in the heart): 216 ng/g | concentration at 1 h ([1]; male, C57BL/6, mouse, heart, po, 200 mg/kg, R + GAE group (5 Gy), 200 mg/kg b.wt oral, read-out: GAE concentration in the heart): 506 ± 39.4 ng/g | concentration at 2 h ([1]; male, C57BL/6, mouse, kidney, po, 200 mg/kg, GAE treated group, 2 h, 200 mg/kg b.wt oral): 529 ± 103 ng/g | concentration at 1 h ([1]; male, C57BL/6, mouse, liver, po, 200 mg/kg, GAE treated group, 200 mg/kg b.wt oral, read-out: concentration of GAE in the liver): 3380 ± 138 ng/g | concentration at 1 h ([1]; male, C57BL/6, mouse, spleen, po, 200 mg/kg, GAE treated animals, 200 mg/kg b.wt oral, read-out: GAE concentration in the spleen): 484 ng/g | concentration at 1 h ([1]; male, C57BL/6, mouse, spleen, po, 200 mg/kg, R + GAE group (5 Gy), 200 mg/kg b.wt oral, read-out: GAE concentration in the spleen): 522 ± 73.2 ng/g | NF-kB positive fluorescence expression [2]: not strong; also recorded: not positive
